Data reported in article PMC4303146, “Investigation of cyanine dyes for in vivo optical imaging of altered mitochondrial membrane potential in tumors” (Cancer Medicine, 2014).

What was measured:
[1] = Photophysical properties (fluorescence spectroscopy, quantum yield); assay type: physicochemical
Method: IC7-1 derivatives were dissolved in chloroform or 5% FBS to give a concentration of 1 μmol/L for fluorescence spectroscopy analysis. Excitation spectra were measured following the emission at 850 nm, and emission spectra were measured following excitation at 823 nm. Quantum yields were determined using a Fluorolog-3 spectrofluorometer equipped with an integrating sphere.

HeLa cells [2] = test: Cellular localization study (fluorescence microscopy with NAO mitochondria marker); assay type: cell-based, human; details: 1 μmol/L, 60 min, NAO 100 nmol/L
Method: HeLa cells (3 × 10^5 cells) were cultured in a poly-L-lysine coated glass bottom dish for 24 h at 37°C before use. Cells were washed twice with phosphate-buffered saline (PBS) and then incubated with the IC7-1 derivative dissolved in dimethyl sulfoxide (DMSO) (1 μmol/L final concentration) in DMEM supplemented with 5% FBS and 1% penicillin and streptomycin for 60 min. To determine the dye localization, mitochondria were labeled with NAO (100 nmol/L final concentration) for 20 min before completion of the incubation with IC7-1 derivative. Next, the cells were washed twice each with DMEM and PBS. Cells were viewed with a fluorescence microscope under a 100× oil-immersion objective lens. MetaMorph® software (Molecular Devices, LLC, Sunnyvale, CA) was used for imaging analysis.

HeLa cells [3] = test: Cellular uptake study with uncoupler CCCP; assay type: cell-based, human; details: dye 1 μmol/L, 60 min, CCCP 0-25 μmol/L
Method: A cellular uptake study was conducted as reported previously. Briefly, the buffer solution (pH 7.4) for the cellular uptake study was composed of NaCl ([…]), KCl (5.4 mmol/L), CaCl2 (1.2 mmol/L), MgSO4 (0.8 mmol/L), NaH2PO4 (0.8 mmol/L), dextrose (5.6 mmol/L), and 4-(2-hydroxyethyl)-1-piperazineethanesulfonic acid) (5 mmol/L). HeLa cells (1 × 10^6 cells/mL buffer solution) were incubated with carbonyl […] m-chlorophenylhydrazone (CCCP; 0, 0.1, 0.25, 0.5, 0.75, 1, 2.5, 5, 10, and 25 μmol/L) for 5 min at 37°C in 1.5 mL microtubes, followed by the addition of the IC7-1 derivative (1 μmol/L final concentration). After a 60-min incubation with the IC7-1 derivative, the cells were washed twice and resuspended with buffer solution. The fluorescence intensity was measured following the excitation at 823 nm and the emission from 840 to 900 nm, and the normalized intensity (%) was calculated as a percentage of fluorescence intensity obtained with CCCP untreated (0 μmol/L) cells.
The buffer solution (pH 7.4) for the cellular uptake study was composed of NaCl (145 mM), KCl (5.4 mM), CaCl2 (1.2 mM), MgSO4 (0.8 mM), NaH2PO4 (0.8 mM), dextrose (5.6 mM), and HEPES (5 mM). The HeLa cells (1 x 10^6 cells / ml buffer solution) were incubated with an uncoupler (CCCP; 0, 0.1, 0.25, 0.5, 0.75, 1, 2.5, 5, 10, and 25 µM) for 5 min at 37 °C in 1.5 mL microtubes, followed by the addition of IR-780 or IC7-1-Bu (1 µM final concentration) After a 60 min incubation with the dyes, the cells were washed twice and resuspended with buffer solution. Fluorescence intensity was measured following the excitation at 763 nm and the emission from 780 to 880 nm for IR-780, and the excitation at 823 nm and the emission from 840 to 900 nm for IC7-1-Bu. The normalized intensity (%) was calculated as a percentage of fluorescence intensity obtained with CCCP untreated (0 µM) cells.

[4] = molecular target: T1, albumin-binding site I (warfarin-binding site) (Bos taurus, UniProt P02769); test: Protein-binding assay with competitive inhibitors in 5% FBS; assay type: in vitro ADME, bovine; details: for Normalized fluorescence intensity with warfarin (albumin site I inhibitor): 5% FBS, inhibitor 189 μmol/L, dye 1 μmol/L
T1 construct: incubated for 30 min in PBS (pH 7.4) containing 5% DMSO and 5% FBS; from tissue; host or cells: fetal bovine serum (5% in PBS)
T1 sequence (P02769 25-607): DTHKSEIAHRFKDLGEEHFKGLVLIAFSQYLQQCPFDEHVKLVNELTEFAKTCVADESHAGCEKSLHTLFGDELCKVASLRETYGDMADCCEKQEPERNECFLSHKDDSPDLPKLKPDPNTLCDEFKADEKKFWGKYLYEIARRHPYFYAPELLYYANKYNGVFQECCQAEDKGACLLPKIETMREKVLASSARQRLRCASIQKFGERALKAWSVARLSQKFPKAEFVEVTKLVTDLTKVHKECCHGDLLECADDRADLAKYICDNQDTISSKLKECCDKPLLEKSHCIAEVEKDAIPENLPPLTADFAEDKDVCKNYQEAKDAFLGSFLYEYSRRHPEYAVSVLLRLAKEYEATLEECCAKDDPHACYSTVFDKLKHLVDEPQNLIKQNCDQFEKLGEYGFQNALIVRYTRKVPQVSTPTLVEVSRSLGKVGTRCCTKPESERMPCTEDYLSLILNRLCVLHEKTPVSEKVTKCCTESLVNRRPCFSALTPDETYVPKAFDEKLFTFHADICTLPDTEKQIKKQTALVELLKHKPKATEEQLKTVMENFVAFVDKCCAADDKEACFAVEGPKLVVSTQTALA
Method: A protein-binding assay was conducted as reported previously. Briefly, warfarin, ibuprofen, digoxin, and quinidine were used as competitive inhibitors of albumin-binding sites I, II, III, and […], respectively. The inhibitors (0 and 189 μmol/L) were incubated for 30 min in PBS (pH 7.4) containing 5% DMSO and 5% FBS at room temperature. Immediately after the addition of the IC7-1 derivative (1 μmol/L final concentration), the fluorescence intensity was measured following the excitation at 823 nm and the emission from 840 to 900 nm. The normalized intensity (%) was calculated as a percentage of fluorescence intensity obtained from an inhibitor untreated sample.

BSA = BSA (Bos taurus, UniProt P02769); test: Association constants of IC7-1 derivatives to albumin (fluorimetric titration); assay type: binding, bovine; details: dye 1 µM, BSA 0-1.0 µM, 30 min; read-out: Ka, association constant of dye-albumin complex (converted)
BSA, sequence (P02769 25-607): as above
Method: Binding studies of IC7-1 derivatives to albumin were conducted as reported previously (Beckford G et al. The solvatochromic effects of side chain substitution on the binding interaction of novel tricarbocyanine dyes with human serum albumin. Talanta 2012;92: 45-52). Briefly, IC7-1 derivatives (1 µM final concentration) were incubated with BSA (0, 0.4, 0.6, 0.8, and 1.0 µM) for 30 min to equilibrate. The fluorescence intensity was measured following the excitation at 823 nm and the emission from 840 to 900 nm. The interaction between dye D and albumin A can be expressed by Eq. 1:
The association constant for the dye-albumin complex formation can be expressed by Eq. 2:
Then, the association constant Ka of the dye-albumin complex was calculated from the data for the fluorimetric titration of the dye with albumin using Eq. 3:
1/ΔF = 1/k[D] + (1/(k[D]Ka))·(1/[A]) (3)
where k is a constant depending on the instrumentation and quantum efficiency of the process.
Therefore, a plot of the reciprocal of ΔF versus the reciprocal of albumin concentration gives a straight line. The association constant was calculated by dividing the intercept by the slope of the line.

HeLa cell xenograft [5] = test: In vivo imaging study in HeLa cell xenograft mice
Method: Animal experiments were conducted in accordance with institutional guidelines and were approved by the Kyoto University Animal Care Committee. […] HeLa cells (2 × 10^6 cells in 100 μL of PBS) were subcutaneously inoculated into the right hind legs of mice. Fourteen days after implantation, mice were used for the imaging study.
Clairvivo® OPT measurement and display software ver. 2.6.0.0. (SHIMADZU Co.) was used for imaging analysis.
Exposure time was 5s for the scan at 3 h, and 3s for the other scans. Clairvivo® OPT measurement and display software ver. 2.6.0.0. (SHIMADZU Co., Kyoto, Japan) was used for imaging analysis.

HeLa cell xenograft [6] = test: In vivo blocking study with protein-binding inhibitor warfarin; design: species or system mice
Method: (§1) Animal experiments were conducted in accordance with institutional guidelines and were approved by the Kyoto University Animal Care Committee. Female nude mice (BALB/c nu/nu 4-weeks old), supplied by Japan SLC, Inc. (Shizuoka, Japan), were housed under a 12 h light/12 h dark cycle and were given free access to food (D10001) and water. HeLa cells (2 × 10^6 cells in 100 μL of PBS) were subcutaneously inoculated into the right hind legs of mice. Fourteen days after implantation, mice were used for the imaging study.
An in vivo blocking study using a protein-binding inhibitor was conducted as reported previously. Briefly, IC7-1-Bu (10 nmol, 100 μL) and warfarin (5.5 μmol, 100 μL) were simultaneously administered to mice via the tail vein, and the mice were imaged using the same method as described above.

HeLa cell xenograft [7] = test: In vivo blocking study with uncoupler CCCP; design: species or system mice; details: intratumoral CCCP 0.25 mg/kg, imaged 1 and 3 h
Method: as §1
In the in vivo blocking study using an uncoupler, IC7-1-Bu (10 nmol, 100 μL) was administered to tumor-bearing mice via the tail vein immediately after intratumoral injection of CCCP (2.5 mL/kg, 0.25 mg/kg). Mice were imaged 1 and 3 h after administration of the imaging agent using the same method as described above.

[8] = design: method as in PMID 21469142; details: cited from earlier work

With CCCCN1/C(=C/C=C2\CCCC(/C=C/C3=[N+](CCCC)c4ccc5ccccc5c4C3(C)C)=C2Cl)C(C)(C)c2c1ccc1ccccc21 [IC7-1-Bu, 3-Butyl-2-(2-{3-[2-(3-butyl-1,1-dimethyl-1,3-dihydro-benz[e]indol-2-ylidene)-ethylidene]-2-chloro-cyclohex-1-enyl}-vinyl)-1,1-dimethyl-1H-benz[e]indolium] the “Φ, quantum yield” value ([1]; 5% FBS) was 0.04, the “ε, extinction coefficient” value ([1]; 5% FBS) was 130000 mol/L/cm and the “emmax, maximum emission wavelength” value ([1]; 5% FBS, 1 μmol/L) was 849 nm. The “exmax, maximum excitation wavelength” value ([1]; 5% FBS, 1 μmol/L) was 823 nm, the “Φ, quantum yield” value ([1]; CHCl3) was 0.06 and the “ε, extinction coefficient” value ([1]; CHCl3) was 330000 mol/L/cm. For the same compound, the “emmax, maximum emission wavelength” value ([1]; CHCl3, 1 μmol/L) was 845 nm, the “exmax, maximum excitation wavelength” value ([1]; CHCl3, 1 μmol/L) was 823 nm and the “Subcellular localization of NIR fluorescence” value (HeLa cells [2]) was “colocalized fluorescence with NAO”. For the same compound, the “Normalized cellular fluorescence intensity under CCCP treatment” value (HeLa cells [3]) was “reduced cellular fluorescence from treatment with a low CCCP concentration”, the “Absorbance peak and fluorescence in 5% FBS versus 0% FBS solution” value ([4]; 5% FBS vs 0% FBS) was “significantly higher in 5% FBS solution than in 0% FBS solution” and the “Normalized fluorescence intensity with warfarin (albumin site I inhibitor)” value [4] was “specifically bound to albumin”. The Absorbance peak ([4]; FBS solution) was 836 nm, the Kd (BSA) was 476 nM and the “Retention of tumor fluorescence after i.v. administration” value (HeLa cell xenograft [5]; 10 nmol i.v.) was 72 h. For the same compound, the “Tumor fluorescence intensity group from ROI analysis” value (HeLa cell xenograft [5]; 10 nmol i.v.) was “high intensity group”, the “Fluorescence intensity at the tumor region” value (HeLa cell xenograft [5]; 10 nmol i.v., 24, 48 and 72 h) was “strong fluorescence intensity at the tumor region up to 72 h” and the “Tumor depiction in fluorescence images” value (HeLa cell xenograft [5]; 10 nmol i.v., 24, 48 and 72 h) was “Tumors were clearly depicted”. For the same compound, the “Fluorescence intensity after co-administration of warfarin” value (HeLa cell xenograft [6]; IC7-1-Bu 10 nmol + warfarin 5.5 μmol i.v., 24-72 h) was “diminished throughout the body”, the “Tumor to neck fluorescence ratio” value (HeLa cell xenograft [6]; warfarin (+), after 1 day) was 2.36 ± 0.09 and the “Tumor to neck fluorescence ratio” value (HeLa cell xenograft [6]; warfarin (+), after 2 day) was 2.49 ± 0.10. For the same compound, the “Tumor to neck fluorescence ratio” value (HeLa cell xenograft [6]; warfarin (+), after 3 day) was 2.46 ± 0.09, the “Tumor to neck fluorescence ratio” value (HeLa cell xenograft [6]; warfarin (−), after 1 day) was 1.94 ± 0.11 and the “Tumor to neck fluorescence ratio” value (HeLa cell xenograft [6]; warfarin (−), after 2 day) was 2.02 ± 0.15. For the same compound, the “Tumor to neck fluorescence ratio” value (HeLa cell xenograft [6]; warfarin (−), after 3 day) was 2.07 ± 0.48 and the “Fluorescence intensity at the tumor after CCCP pretreatment” value (HeLa cell xenograft [7]) was “significantly decreased by CCCP pretreatment”.
With CCCN1/C(=C/C=C2\CCCC(/C=C/C3=[N+](CCC)c4ccc5ccccc5c4C3(C)C)=C2Cl)C(C)(C)c2c1ccc1ccccc21 [IC7-1-Pr, 3-Propyl-2-(2-{3-[2-(3-propyl-1,1-dimethyl-1,3-dihydro-benz[e]indol-2-ylidene)-ethylidene]-2-chloro-cyclohex-1-enyl}-vinyl)-1,1-dimethyl-1H-benz[e]indolium] the “Φ, quantum yield” value ([1]; 5% FBS) was 0.05, the “ε, extinction coefficient” value ([1]; 5% FBS) was 130000 mol/L/cm and the “emmax, maximum emission wavelength” value ([1]; 5% FBS, 1 μmol/L) was 843 nm. For the same compound, the “exmax, maximum excitation wavelength” value ([1]; 5% FBS, 1 μmol/L) was 823 nm, the “Φ, quantum yield” value ([1]; CHCl3) was 0.07 and the “ε, extinction coefficient” value ([1]; CHCl3) was 330000 mol/L/cm. For the same compound, the “emmax, maximum emission wavelength” value ([1]; CHCl3, 1 μmol/L) was 845 nm, the “exmax, maximum excitation wavelength” value ([1]; CHCl3, 1 μmol/L) was 823 nm and the “Subcellular localization of NIR fluorescence” value (HeLa cells [2]) was “colocalized fluorescence with NAO”. For the same compound, the “Normalized cellular fluorescence intensity under CCCP treatment” value (HeLa cells [3]) was “reduced cellular fluorescence from treatment with a low CCCP concentration”, the “Normalized fluorescence intensity with warfarin (albumin site I inhibitor)” value [4] was “specifically bound to albumin” and the Kd (BSA) was 417 nM. For the same compound, the “Tumor fluorescence intensity group from ROI analysis” value (HeLa cell xenograft [5]; 10 nmol i.v.) was “mild intensity group” and the “Tumor depiction in fluorescence images” value (HeLa cell xenograft [5]; 10 nmol i.v., 24, 48 and 72 h) was “Tumors were clearly depicted”.
In the case of CC1(C)C(/C=C/C=C/C=C/C=C2\N(CCCCS(=O)(=O)O)c3ccc4ccccc4c3C2(C)C)=[N+](CCCCS(=O)(=O)[O-])c2ccc3ccccc3c21 [ICG, indocyanine green], the “Clearance and tumor accumulation after i.v. administration” value [8] is given as “rapid clearance through the liver into feces with low accumulation in tumors”.
